Test results: US20150307491A1, “SUBSTITUTED PYRIDOPYRAZINES AS SYK INHIBITORS” (HUTCHISON MEDIPHARMA LIMITED, priority 2012, published 2015)

Test system: RBL-2H3 cells
Test: IgE-induced Beta-hexosaminidase secretion in RBL-2H3 cells
Format: cell-based
Conditions: Rattus norvegicus; RBL-2H3 cells sensitized with SPE-7, stimulated with DNP-BSA
Description: For the determination of IgE-induced Beta-hexosaminidase secretion, RBL-2H3 cells (SIBS) are seeded in 96 well plates at 4×10^4 cells per well and incubated in MEM media with 15% FBS and Glutamine ([…]) for 4 hours and sensitized with 0.5 ug/ml of SPE-7 overnight. Cells are washed 3 times with Tyrode's buffer and incubated in the presence or absence of various concentrations of the testing compound for 20 min at 37° C., 5% CO2. Cells are stimulated by adding 10 μL of DNP-BSA solution (150 ng/mL) to each well and incubating for 45 minutes at 37° C., 5% CO2. Then, 45 μL of the supernatant is taken and incubated with 100 μL of 1 mM 4-Nitrophenyl N-acetyl-β-D-glucosaminide (Sigma, Cat. No. N9376), which is diluted in 0.05 M citrate buffer (pH 4.5), for 1.5 hr at 37° C. The reactions are quenched by adding 185 μL of 0.05 M sodium carbonate buffer (pH 10.0). Plates are read at 405 nm on Multiskan (MK 3).

Row | SMILES | IC50 [µM]
1 | CNC(=O)CS(=O)(=O)N1CCO[C@H](COc2nc(-c3ccc(N(C)C)cc3)cc3nccnc23)C1 [Compound 99] | 0.1 to 1
2 | COCCS(=O)(=O)N1CCO[C@H](COc2nc(-c3ccc(N4CCOCC4)cc3)cc3nccnc23)C1 [Compound 66] | 0.1 to 1
3 | Cn1ccc2cc(-c3cc4nccnc4c(OC[C@@H]4CN(S(C)(=O)=O)CCO4)n3)ccc21 [Compound 39] | 0.001 to 0.1
4 | CN(C)c1ccc(-c2cc3nccnc3c(OC3CCCOC3)n2)cc1 (stereo not drawn) [Compound 127] | 0.001 to 0.1
5 | COC1CCN(c2ccc(-c3cc4nccnc4c(OC[C@@H]4CN(C(C)=O)CCO4)n3)cc2)CC1 [Compound 48] | 0.1 to 1
6 | CN(C)CCS(=O)(=O)N1CCO[C@H](COc2nc(-c3ccc(N4CCOCC4)cc3)cc3nccnc23)C1 [Compound 65] | 0.1 to 1
7 | CC1CN(c2ccc(-c3cc4nccnc4c(OC[C@@H]4CN(S(C)(=O)=O)CCO4)n3)cc2)CCO1 (stereo partly drawn) [Compound 18] | 0.001 to 0.1
8 | CS(=O)(=O)N1CCC(c2ccc(-c3cc4nccnc4c(O[C@@H]4CCOC4)n3)cc2)CC1 [Compound 124] | 0.001 to 0.1
9 | CNc1ccc(-c2cc3nccnc3c(OC[C@@H]3CN(C(=O)[C@H]4CCOC4)CCO3)n2)cc1 [Compound 50] | 0.1 to 1
10 | CC(=O)N1CCO[C@H](COc2nc(-c3ccc(N4CCOCC4)cc3)cc3nccnc23)C1 [Compound 24] | 0.1 to 1
11 | CNC(=O)COc1ccc(-c2cc3nccnc3c(OC[C@@H]3CN(S(C)(=O)=O)CCO3)n2)cc1 [Compound 129] | 0.1 to 1
12 | CS(=O)(=O)N1CCO[C@H](COc2nc(-c3ccc(N4CCOCC4)cc3)cc3nccnc23)C1 [Compound 12] | 0.001 to 0.1
13 | Cn1ncc2cc(-c3cc4nccnc4c(OC[C@@H]4CN(S(C)(=O)=O)CCO4)n3)ccc21 [Compound 105] | 0.001 to 0.1
14 | Cc1cc(-c2cc3nccnc3c(OC[C@@H]3CN(S(C)(=O)=O)CCO3)n2)ccc1N(C)C [Compound 134] | 0.001 to 0.1
15 | CN(C)c1ccc(-c2cc3nccnc3c(OC[C@@H]3CN(C(=O)CCC#N)CCO3)n2)cc1 [Compound 77] | 0.1 to 1
16 | Cc1nccn1CCS(=O)(=O)N1CCO[C@H](COc2nc(-c3ccc(N(C)C)cc3)cc3nccnc23)C1 [Compound 101, (S)—N,N-dimethyl-4-(5-((4-(2-(2-methyl-1H-imidazol-1-yl)ethylsulfonyl)morpholin-2-yl)methoxy)pyrido[4,3-b]pyrazin-7-yl)aniline] | 0.1 to 1
17 | COCCN1CCC(c2ccc(-c3cc4nccnc4c(OC[C@@H]4CN(S(C)(=O)=O)CCO4)n3)cc2)CC1 [Compound 59] | 0.1 to 1
18 | CC(=O)N1CCO[C@H](COc2nc(-c3ccc(N4CCN(CCO)CC4)cc3)cc3nccnc23)C1 [Compound 49] | 0.1 to 1
19 | CS(=O)(=O)N1CCO[C@H](COc2nc(-c3ccc4c(c3)OCO4)cc3nccnc23)C1 [Compound 110] | 0.1 to 1
20 | O=C(C(F)F)N1CCO[C@H](COc2nc(-c3ccc(N4CCOCC4)cc3)cc3nccnc23)C1 [Compound 61] | 0.001 to 0.1
21 | CS(=O)(=O)N1CCO[C@H](COc2nc(-c3ccc(N4CCCCC4)cc3)cc3nccnc23)C1 [Compound 21] | 0.001 to 0.1
22 | CS(=O)(=O)N1CCO[C@H](COc2nc(-c3ccc(N4CCN(CCO)CC4)cc3)cc3nccnc23)C1 [Compound 27] | 0.1 to 1

Row | SMILES | IC50 [µM]
23 | CN(C)c1ccc(-c2cc3nccnc3c(OC[C@@H]3CN(C(=O)C4CC(F)(F)C4)CCO3)n2)cc1 [Compound 71] | 0.1 to 1
24 | CNc1ccc(-c2cc3nccnc3c(OC[C@@H]3CN(S(C)(=O)=O)CCO3)n2)cc1 [Compound 36] | 0.001 to 0.1
25 | CNc1ccc(-c2cc3nccnc3c(OC[C@@H]3CN(S(C)(=O)=O)CCO3)n2)cc1F [Compound 52] | 0.001 to 0.1
26 | CS(=O)(=O)N1CCO[C@H](COc2nc(-c3ccc(N4CCNCC4)cc3)cc3nccnc23)C1 [Compound 14] | 0.1 to 1
27 | CN(C)c1ccc(-c2cc3nccnc3c(OC[C@@H]3CN(C(=O)c4cccnc4)CCO3)n2)cc1 [Compound 78] | 0.001 to 0.1
28 | C[C@@H]1CN(c2ccc(-c3cc4nccnc4c(OC[C@@H]4CN(S(C)(=O)=O)CCO4)n3)cc2)C[C@H](C)O1 [Compound 19] | 0.1 to 1
29 | CN(C)c1ccc(-c2cc3nccnc3c(OC[C@@H]3CN(C(=O)CC#N)CCO3)n2)cc1 [Compound 76] | 0.001 to 0.1
30 | CS(=O)(=O)N1CCO[C@H](COc2nc(-c3ccc(N4CCOCC4)c(F)c3)cc3nccnc23)C1 [Compound 7] | 0.1 to 1
31 | CS(=O)(=O)N1CCO[C@H](COc2nc(-c3ccc(C4CCOCC4)cc3)cc3nccnc23)C1 [Compound 11] | 0.001 to 0.1
32 | CCS(=O)(=O)N1CCO[C@H](COc2nc(-c3ccc(N(C)C)cc3)cc3nccnc23)C1 [Compound 88] | 0.001 to 0.1
33 | COC1CCN(c2ccc(-c3cc4nccnc4c(OC[C@@H]4CN(S(C)(=O)=O)CCO4)n3)cc2)CC1 [Compound 31] | 0.001 to 0.1
34 | CN1CCC(c2ccc(-c3cc4nccnc4c(OC[C@@H]4CN(S(C)(=O)=O)CCO4)n3)cc2)CC1 [Compound 8] | 0.1 to 1
35 | CNC(=O)N1CCO[C@H](COc2nc(-c3ccc(N(C)C)cc3)cc3nccnc23)C1 [Compound 137] | 0.001 to 0.1
36 | COc1ccc(-c2cc3nccnc3c(OC[C@@H]3CN(S(C)(=O)=O)CCO3)n2)cc1 [Compound 38] | 0.1 to 1
37 | CN1CCN(c2ccc(-c3cc4nccnc4c(OC[C@@H]4CN(S(C)(=O)=O)CCO4)n3)cc2)CC1 [Compound 13] | 0.001 to 0.1
38 | CN(C)c1ccc(-c2cc3nccnc3c(OC[C@@H]3CN(C(=O)Cc4c[nH]cn4)CCO3)n2)cc1 [Compound 84] | 0.1 to 1
39 | CN(C)c1ccc(-c2cc3nccnc3c(OC[C@@H]3CN(S(=O)(=O)c4cccnc4)CCO3)n2)cc1 [Compound 92] | 0.001 to 0.1
40 | O=C(C(F)F)N1CCO[C@H](COc2nc(-c3ccc(N4CCNCC4)cc3)cc3nccnc23)C1 [Compound 6, (S)-2,2-difluoro-1-(2-((7-(4-(piperazin-1-yl)phenyl)pyrido[4,3-b]pyrazin-5-yloxy)methyl)morpholino)ethanone] | 0.1 to 1
41 | CC(=O)N1CCN(c2ccc(-c3cc4nccnc4c(OC[C@@H]4CN(S(C)(=O)=O)CCO4)n3)cc2)CC1 [Compound 122] | 0.001 to 0.1
42 | CCN(CC)c1ccc(-c2cc3nccnc3c(OC[C@@H]3CN(C(C)=O)CCO3)n2)cc1 [Compound 131] | 0.001 to 0.1
43 | CNS(=O)(=O)N1CCO[C@H](COc2nc(-c3ccc(N4CCOCC4)cc3)cc3nccnc23)C1 [Compound 55] | 0.1 to 1
44 | COc1cc(-c2cc3nccnc3c(OC[C@@H]3CN(S(C)(=O)=O)CCO3)n2)ccc1OCCN(C)C [Compound 126] | 0.1 to 1

Row | SMILES | IC50 [µM]
45 | CS(=O)(=O)N1CCO[C@H](COc2nc(-c3ccc4ncccc4c3)cc3nccnc23)C1 [Compound 111] | 0.1 to 1
46 | NS(=O)(=O)N1CCO[C@H](COc2nc(-c3ccc(N4CCCCC4)cc3)cc3nccnc23)C1 [Compound 28] | 0.1 to 1
47 | CN1CCN(c2ccc(-c3cc4nccnc4c(O[C@@H]4CCOC4)n3)cc2)CC1 [Compound 125] | 0.001 to 0.1
48 | CNc1ccc(-c2cc3nccnc3c(O[C@@H]3CCOC3)n2)cc1 [Compound 133] | 0.001 to 0.1
49 | CCS(=O)(=O)N1CCC(c2ccc(-c3cc4nccnc4c(OC[C@@H]4CN(C(C)=O)CCO4)n3)cc2)CC1 [Compound 23] | 0.1 to 1
50 | CC(C)C(=O)N1CCO[C@H](COc2nc(-c3ccc(N(C)C)cc3)cc3nccnc23)C1 [Compound 68] | 0.1 to 1
51 | CCN(CC)c1ccc(-c2cc3nccnc3c(OC[C@@H]3CN(S(C)(=O)=O)CCO3)n2)cc1 [Compound 119] | 0.001 to 0.1
52 | CN(C)c1ccc(-c2cc3nccnc3c(OC[C@@H]3CN(C(N)=O)CCO3)n2)cc1 [Compound 136] | 0.001 to 0.1
53 | CNc1ccc(-c2cc3nccnc3c(OC[C@@H]3CN(C(=O)[C@H]4CCCO4)CCO3)n2)cc1 [Compound 51] | 0.1 to 1
54 | NS(=O)(=O)N1CCO[C@H](COc2nc(-c3ccc(N4CCOCC4)cc3)cc3nccnc23)C1 [Compound 62] | 0.001 to 0.1
55 | O=S(=O)(C1CC1)N1CCO[C@H](COc2nc(-c3ccc(N4CCOCC4)cc3)cc3nccnc23)C1 [Compound 83] | 0.001 to 0.1
56 | NC(=O)N1CCO[C@H](COc2nc(-c3ccc(N4CCOCC4)cc3)cc3nccnc23)C1 [Compound 63] | 0.1 to 1
57 | CN(C)c1ccc(-c2cc3nccnc3c(OC[C@@H]3CN(C(=O)C4CCOCC4)CCO3)n2)cc1 [Compound 73] | 0.1 to 1
58 | CCN1CCN(c2ccc(-c3cc4nccnc4c(OC[C@@H]4CN(C(=O)C(F)F)CCO4)n3)cc2)CC1 [Compound 17] | 0.001 to 0.1
59 | CN(CC#N)CCS(=O)(=O)N1CCO[C@H](COc2nc(-c3ccc(N(C)C)cc3)cc3nccnc23)C1 [Compound 104] | 0.1 to 1
60 | CN(C)c1ccc(-c2cc3nccnc3c(OC[C@@H]3CN(C(=O)c4ncc[nH]4)CCO3)n2)cc1 [Compound 86] | 0.1 to 1
61 | CN(C)c1ccc(-c2cc3nccnc3c(OC[C@@H]3CN(S(=O)(=O)CCN4CC[C@@H](O)C4)CCO3)n2)cc1 [Compound 102] | 0.1 to 1
62 | NS(=O)(=O)N1CCO[C@H](COc2nc(-c3ccc(N4CCC(F)(F)CC4)cc3)cc3nccnc23)C1 [Compound 29] | 0.1 to 1
63 | CN(C)c1ccc(-c2cc3nccnc3c(OC[C@@H]3CN(C(=O)[C@H]4CC[C@H](O)CC4)CCO3)n2)cc1 [Compound 74] | 0.1 to 1
64 | CN(C)c1ccc(-c2cc3nccnc3c(OC[C@@H]3CN(C(=O)[C@@H]4CCOC4)CCO3)n2)cc1 [Compound 72] | 0.1 to 1
65 | CN(C)c1ccc(-c2cc3nccnc3c(OC[C@@H]3CN(C(=O)c4cnn(C)c4)CCO3)n2)cc1 [Compound 87] | 0.1 to 1
66 | CN(C)c1ccc(-c2cc3nccnc3c(OC[C@@H]3CN(C(=O)C4CCCC4)CCO3)n2)cc1 [Compound 98] | 0.1 to 1
